The values that follow come from US10889610B2, “Alpha-D-galactoside inhibitors of galectins” (GALECTO BIOTECH AB, priority 2016, dated 2021).

The structures appear in SMILES notation.

Chain of galectin-1 (P09382 whole entry): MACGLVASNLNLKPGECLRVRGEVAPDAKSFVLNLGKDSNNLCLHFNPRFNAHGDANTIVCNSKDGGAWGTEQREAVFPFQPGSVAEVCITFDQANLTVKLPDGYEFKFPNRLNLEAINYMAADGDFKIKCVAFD
Chain of galectin-3 (P17931 whole entry): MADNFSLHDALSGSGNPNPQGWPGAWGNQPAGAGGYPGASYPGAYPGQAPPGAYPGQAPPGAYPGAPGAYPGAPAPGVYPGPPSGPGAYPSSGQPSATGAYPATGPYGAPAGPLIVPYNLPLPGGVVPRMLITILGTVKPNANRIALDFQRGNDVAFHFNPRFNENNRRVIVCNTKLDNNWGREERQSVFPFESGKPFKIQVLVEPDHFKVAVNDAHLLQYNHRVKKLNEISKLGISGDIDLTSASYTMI

The first assay has as its target galectin-1 (Homo sapiens (Human), UniProt P09382). In words: Fluorescence anisotropy assay, galectin-1 affinity. In kind it is binding. To be noted: inhibition of galectin / fluorescein tagged saccharide probe interaction. As for the experimental part: The affinity of Example 1-22 for galectins were determined by a fluorescence anisotropy assay where the compound was used as an inhibitor of the interaction between galectin and a fluorescein tagged saccharide probe as described Sörme, P., Kahl-Knutsson, B., Huflejt, M., Nilsson, U. J., and Leffler H. (2004) Fluorescence polarization as an analytical tool to evaluate galectin-ligand interactions. Anal. Biochem. 334: 36-47, (Sörme et al., 2004) and Monovalent interactions of Galectin-1 By Salomonsson, Emma; Larumbe, Amaia; Tejler, Johan; Tullberg, Erik; Rydberg, Hanna; Sundin, Anders; Khabut, Areej; Frejd, Torbjorn; Lobsanov, Yuri D.; Rini, James M.; et al, From Biochemistry (2010), 49(44), 9518-9532, (Salomonsson et al., 2010). […] 100 nM albumin was included as a carrier to prevent protein loss at such low concentration of galectin.
(In general: Polarisation of emitted light reports the rotation of a fluorescent probe.)
As for `N#Cc1cnc(S[C@H]2O[C@H](CO)[C@H](O)[C@H](n3cc(-c4cc(F)c(F)c(F)c4)nn3)[C@H]2O)cc1Br` [Example 1, 4-Bromo-5-cyano-2-pyridyl 3-deoxy-3-[4-(3,4,5-trifluorophenyl)-1H-1,2,3-triazol-1-yl]-1-thio-α-D-galactopyranoside], the Kd came to 2.6 µM. Same read-out and setting: the value for `OC[C@H]1O[C@H](Sc2cc(Cl)ccn2)[C@H](O)[C@@H](n2cc(-c3cc(F)c(F)c(F)c3)nn2)[C@H]1O` [Example 7, 4-Chloro-2-pyridyl 3-deoxy-3-[4-(3,4,5-trifluorophenyl)-1H-1,2,3-triazol-1-yl]-1-thio-α-D-galactopyranoside] was 6.9 µM. On the same count and under the same terms, the result for `N#Cc1ncc(S[C@H]2O[C@H](CO)[C@H](O)[C@H](n3cc(-c4cc(F)c(Cl)c(F)c4)nn3)[C@H]2O)cc1Br` [Example 12, 5-Bromo-6-cyano-3-pyridyl 3-deoxy-3-[4-(4-chloro-3,5-difluorophenyl)-1H-1,2,3-triazol-1-yl]-1-thio-α-D-galactopyranoside] reads 7 µM.

In a further assay the test system is galectins.
Experiment: not given
To be noted: relative to lactose, all galectins; cited from earlier work.
Regarding `O=C[C@H](O)[C@@H](O)[C@@H](O)[C@H](O)CO` [D-galactose], the “affinity, times lower than lactose” value is 50-100 times.

Staying with this assay, now noted: reviewed by Leffler 2001, Leffler et al. 2004; read-out: Kd, all galectins; cited from earlier work.
As for `OC[C@H]1O[C@@H](O[C@H]2[C@H](O)[C@@H](O)C(O)O[C@@H]2CO)[C@H](O)[C@@H](O)[C@H]1O` (some centres unmarked) [lactose], the Kd is 500 to 1000 µM.

Another assay addresses galectin-3 (Homo sapiens (Human), UniProt P17931). In words: Fluorescence anisotropy assay, galectin-3 affinity. The assay is classed as binding. To be noted: inhibition of galectin / fluorescein tagged saccharide probe interaction. The method, then:
Anal. Biochem. 334: 36-47, (Sörme et al., 2004) and Monovalent interactions of Galectin-1 By Salomonsson, Emma; Larumbe, Amaia; Tejler, Johan; Tullberg, Erik; Rydberg, Hanna; Sundin, Anders; Khabut, Areej; Frejd, Torbjorn; Lobsanov, Yuri D.; Rini, James M.; et al, From Biochemistry (2010), 49(44), 9518-9532, (Salomonsson et al., 2010). […] 100 nM albumin was included as a carrier to prevent protein loss at such low concentration of galectin.
Compound `N#Cc1cnc(S[C@H]2O[C@H](CO)[C@H](O)[C@H](n3cc(-c4cc(F)c(F)c(F)c4)nn3)[C@H]2O)cc1Br` [Example 1, 4-Bromo-5-cyano-2-pyridyl 3-deoxy-3-[4-(3,4,5-trifluorophenyl)-1H-1,2,3-triazol-1-yl]-1-thio-α-D-galactopyranoside] registered a Kd of 0.027 µM. Compound `N#Cc1cnc(S[C@H]2O[C@H](CO)[C@H](O)[C@H](n3cc(-c4cc(F)c(F)c(F)c4)nn3)[C@H]2O)cc1Cl` [Example 2, 4-Chloro-5-cyano-2-pyridyl 3-deoxy-3-[4-(3,4,5-trifluorophenyl)-1H-1,2,3-triazol-1-yl]-1-thio-α-D-galactopyranoside] displayed a Kd of 0.057 µM. `OC[C@H]1O[C@H](Sc2ccnc(Cl)c2)[C@H](O)[C@@H](n2cc(-c3cc(F)c(F)c(F)c3)nn2)[C@H]1O` [Example 3, 2-Chloro-4-pyridyl 3-deoxy-3-[4-(3,4,5-trifluorophenyl)-1H-1,2,3-triazol-1-yl]-1-thio-α-D-galactopyranoside] gave a Kd of 0.086 µM. For `N#Cc1ncc(Cl)cc1S[C@H]1O[C@H](CO)[C@H](O)[C@H](n2cc(-c3cc(F)c(F)c(F)c3)nn2)[C@H]1O` [Example 4, 5-Chloro-2-cyano-3-pyridyl 3-deoxy-3-[4-(3,4,5-trifluorophenyl)-1H-1,2,3-triazol-1-yl]-1-thio-α-D-galactopyranoside], the affinity, expressed as Kd, was 0.029 µM. For `N#Cc1ncc(S[C@H]2O[C@H](CO)[C@H](O)[C@H](n3cc(-c4cc(F)c(F)c(F)c4)nn3)[C@H]2O)cc1Br` [Example 5, 5-Bromo-6-cyano-3-pyridyl 3-deoxy-3-[4-(3,4,5-trifluorophenyl)-1H-1,2,3-triazol-1-yl]-1-thio-α-D-galactopyranoside], the Kd was 0.022 µM. Regarding `N#Cc1ncc(Br)cc1S[C@H]1O[C@H](CO)[C@H](O)[C@H](n2cc(-c3cc(F)c(F)c(F)c3)nn2)[C@H]1O` [Example 6, 5-Bromo-2-cyano-3-pyridyl 3-deoxy-3-[4-(3,4,5-trifluorophenyl)-1H-1,2,3-triazol-1-yl]-1-thio-α-D-galactopyranoside], the Kd was determined as 0.022 µM. Same read-out and setting: the value for `OC[C@H]1O[C@H](Sc2cc(Cl)ccn2)[C@H](O)[C@@H](n2cc(-c3cc(F)c(F)c(F)c3)nn2)[C@H]1O` [Example 7, 4-Chloro-2-pyridyl 3-deoxy-3-[4-(3,4,5-trifluorophenyl)-1H-1,2,3-triazol-1-yl]-1-thio-α-D-galactopyranoside] was 0.12 µM. Compound `OC[C@H]1O[C@H](Sc2cncc(Cl)c2)[C@H](O)[C@@H](n2cc(-c3cc(F)c(Cl)c(F)c3)nn2)[C@H]1O` [Example 9, 5-Chloro-3-pyridyl 3-deoxy-3-[4-(4-chloro-3,5-difluorophenyl)-1H-1,2,3-triazol-1-yl]-1-thio-α-D-galactopyranoside] returned a Kd of 0.022 µM.

For the compound `N#Cc1ncc(S[C@H]2O[C@H](CO)[C@H](O)[C@H](n3cc(-c4cc(F)c(Cl)c(F)c4)nn3)[C@H]2O)cc1Cl` [Example 10, 5-Chloro-6-cyano-3-pyridyl 3-deoxy-3-[4-(4-chloro-3,5-difluorophenyl)-1H-1,2,3-triazol-1-yl]-1-thio-α-D-galactopyranoside], the Kd was found to be 0.018 µM. For the compound `N#Cc1ncc(Br)cc1S[C@H]1O[C@H](CO)[C@H](O)[C@H](n2cc(-c3cc(F)c(Cl)c(F)c3)nn2)[C@H]1O` [Example 11, 5-Bromo-2-cyano-3-pyridyl 3-deoxy-3-[4-(4-chloro-3,5-difluorophenyl)-1H-1,2,3-triazol-1-yl]-1-thio-α-D-galactopyranoside], the Kd was found to be 0.011 µM. Same read-out and setting: the result for `N#Cc1ncc(S[C@H]2O[C@H](CO)[C@H](O)[C@H](n3cc(-c4cc(F)c(Cl)c(F)c4)nn3)[C@H]2O)cc1Br` [Example 12, 5-Bromo-6-cyano-3-pyridyl 3-deoxy-3-[4-(4-chloro-3,5-difluorophenyl)-1H-1,2,3-triazol-1-yl]-1-thio-α-D-galactopyranoside] reads 0.016 µM; that for `N#Cc1ncc(Cl)cc1S[C@H]1O[C@H](CO)[C@H](O)[C@H](n2cc(-c3cc(F)c(Cl)c(F)c3)nn2)[C@H]1O` [Example 13, 5-Chloro-2-cyano-3-pyridyl 3-deoxy-3-[4-(4-chloro-3,5-difluorophenyl)-1H-1,2,3-triazol-1-yl]-1-thio-α-D-galactopyranoside], 0.011 µM; that for `N#Cc1c(F)cc(-c2cn([C@@H]3[C@@H](O)[C@@H](Sc4cncc(Cl)c4)O[C@H](CO)[C@@H]3O)nn2)cc1F` [Example 14, 5-Chloro-3-pyridyl 3-deoxy-3-[4-(4-cyano-3,5-difluorophenyl)-1H-1,2,3-triazol-1-yl]-1-thio-α-D-galactopyranoside], 0.18 µM.

For the compound `OC[C@H]1O[C@H](Sc2cncc(Cl)c2)[C@H](O)[C@@H](n2cc(-c3cc(F)c(C(F)(F)F)c(F)c3)nn2)[C@H]1O` [Example 15, 5-Chloro-3-pyridyl 3-deoxy-3-[4-(3,5-difluoro-4-trifluoromethyl-phenyl)-1H-1,2,3-triazol-1-yl]-1-thio-α-D-galactopyranoside], the affinity, expressed as Kd, was 0.097 µM. Regarding `Cc1c(F)cc(-c2cn([C@@H]3[C@@H](O)[C@@H](Sc4cncc(Cl)c4)O[C@H](CO)[C@@H]3O)nn2)cc1F` [Example 16, 5-Chloro-3-pyridyl 3-deoxy-3-[4-(3,5-difluoro-4-methylphenyl)-1H-1,2,3-triazol-1-yl]-1-thio-α-D-galactopyranoside], the affinity, expressed as Kd, was 0.018 µM. On the same count and under the same terms, the result for `OC[C@H]1O[C@H](Sc2cncc(Cl)c2)[C@H](O)[C@@H](n2cc(-c3cc(F)c(Br)c(F)c3)nn2)[C@H]1O` [Example 17, 5-Chloro-3-pyridyl 3-deoxy-3-[4-(4-bromo-3,5-difluorophenyl)-1H-1,2,3-triazol-1-yl]-1-thio-α-D-galactopyranoside] reads 0.028 µM; that for `OC[C@H]1O[C@H](Sc2cncc(Cl)c2)[C@H](O)[C@@H](n2cc(-c3cc(F)c(Cl)c(Cl)c3)nn2)[C@H]1O` [Example 18, 5-Chloro-3-pyridyl 3-deoxy-3-[4-(3,4-dichloro-5-fluorophenyl)-1H-1,2,3-triazol-1-yl]-1-thio-α-D-galactopyranoside], 0.027 µM. Same read-out and setting: the result for `OC[C@H]1O[C@H](Sc2cncc(Cl)c2)[C@H](O)[C@@H](n2cc(-c3ccc(Cl)c(F)c3)nn2)[C@H]1O` [Example 19, 5-Chloro-3-pyridyl 3-deoxy-3-[4-(4-chloro-3-fluorophenyl)-1H-1,2,3-triazol-1-yl]-1-thio-α-D-galactopyranoside] reads 0.034 µM; that for `OC[C@H]1O[C@H](Sc2ccc(Cl)c(Cl)c2)[C@H](O)[C@@H](n2cc(-c3cncc(F)c3)nn2)[C@H]1O` [Example 20, 3,4-Dichlorophenyl 3-deoxy-3-[4-(5-fluoro-3-pyridyl)-1H-1,2,3-triazol-1-yl]-1-thio-α-D-galactopyranoside], 0.75 µM; that for `OC[C@H]1O[C@H](Sc2cncc(Cl)c2)[C@H](O)[C@@H](n2cc(-c3ccc(Cl)c(Cl)c3)nn2)[C@H]1O` [Example 21, 5-Chloro-3-pyridyl 3-deoxy-3-[4-(3,4-dichlorophenyl)-1H-1,2,3-triazol-1-yl]-1-thio-α-D-galactopyranoside], 0.031 µM.

`OC[C@H]1O[C@H](Sc2ccc(Cl)c(Cl)c2)[C@H](O)[C@@H](n2cc(-c3cncc(Cl)c3)nn2)[C@H]1O` [Example 22, 3,4-Dichlorophenyl 3-deoxy-3-[4-(5-chloro-3-pyridyl)-1H-1,2,3-triazol-1-yl]-1-thio-α-D-galactopyranoside]: the Kd was 0.694 µM.

The term Kd denotes a measure of binding affinity in units of concentration.
